Reference: publication PMC3244877 (2009)
pKi: −log10 of the molar value.

Biological target: T1, HsEg5 (Homo sapiens, UniProt P52732)
T1 sequence (P52732 1-370): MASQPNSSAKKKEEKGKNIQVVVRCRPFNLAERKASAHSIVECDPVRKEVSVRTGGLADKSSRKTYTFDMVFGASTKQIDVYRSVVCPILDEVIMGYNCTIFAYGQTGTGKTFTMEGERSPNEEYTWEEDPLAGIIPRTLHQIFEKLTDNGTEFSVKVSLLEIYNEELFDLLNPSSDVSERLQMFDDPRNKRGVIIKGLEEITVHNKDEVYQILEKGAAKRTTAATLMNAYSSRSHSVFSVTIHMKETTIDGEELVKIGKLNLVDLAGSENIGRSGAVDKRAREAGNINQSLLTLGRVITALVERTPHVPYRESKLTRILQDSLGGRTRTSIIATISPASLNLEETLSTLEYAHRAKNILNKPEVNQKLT
Assay: NADH-coupled basal ATPase assay, Lineweaver-Burk
Format: biochemical

[Mo] [NSC 622124]
pKi: 6.26
